Publication PMC7602804 (Nutrients, 2020)
No end group written: not given here.

Experiments:
Caco-2 monolayers = assay: Apical to basolateral transport of milk peptides across Caco-2 monolayers (LC-MS/MS of basolateral medium); format: in vitro ADME, human; conditions: 2.5 h
Experimental: The human colorectal adenocarcinoma cell line, Caco-2, was obtained from DSMZ (Braunschweig, Germany). The cells were grown to 50–60% confluence in Dulbecco’s Modified Eagle Medium (DMEM) Glutamax cell culture medium, supplemented with 10% heat-inactivated fetal bovine serum, 100 units/mL of penicillin and 100 μg/mL of streptomycin (all from Invitrogen, Carlsbad, CA, USA) in a humidified 5% CO2/95% air atmosphere at 37 °C. The cells used in the experiments were between passages 30 and 40.
The Caco-2 cells used for transport studies were seeded in polyethylene terephthalate culture inserts, with a pore size of 0.4 μm and a growth area of 0.33 cm^2 at a density of approximately 25,000 cells/insert. The Caco-2 cells were grown for three weeks on the porous membrane before they were used for transepithelial transport. The integrity of the monolayers was confirmed by measuring the TEER using a Millicell ERS-2 volt ohmmeter. Only Caco-2 monolayers with TEER values above 400 Ω cm^2 were used for the transport analysis.
(§1) Following the TEER value measurement, the Caco-2 and PBEC monolayers were gently washed twice with phosphate-buffered saline, and the transport medium (Hanks’ Balanced Salt solution supplemented with 10 mM of HEPES) was added to the apical and basolateral compartments. The inserts were incubated for 15 min or 2.5 h with the purified milk peptides (0.1 mg/mL) or the synthetic PIGSENSEKTTMPLW peptide (2 µg/mL), after which medium from the apical and basolateral compartments were collected for liquid chromatography tandem mass spectrometry (LC-MS/MS) analysis. Inserts incubated with a medium without peptides served as the control in the transport experiments. Membrane integrity was validated by addition of D-[1-^14C]-Mannitol (3.5 µM, 56.8 mCi/mmol) (Perkin Elmer, Waltham, MA, USA) to the upper chamber of the culture inserts with or without milk peptides for 2.5 h. The passive permeability experiments were performed on four or five individual culture inserts. Basolateral samples were mixed with Ultima Gold liquid scintillation fluid (Perkin Elmer) and counted in a Tri-Carb 2810 TR scintillation counter (Perkin Elmer). The apparent permeability coefficient (Papp, cm/s) was determined as Papp = (dQ/dt)/(AC0) where dQ/dt is the steady state flux (cpm/s), A is the surface area of the cell culture insert membrane and C0 is the initial concentration in the apical compartment (cpm/mL).
LC-MS/MS analysis was performed on a TripleTOF 6600 mass spectrometer equipped with an Exigent nanoLC 415 system (AB Sciex, Les Ulis, France). All samples were micro-purified using 3 M Empore C18 discs packed in pipette tips. The lyophilized samples were dissolved in 0.1% formic acid, injected on a trap column (2 cm × 100 µm inner diameter) and separated on an analytical column packed in-house in a pulled emitter (15 cm × 75 µm inner diameter). All columns were packed with ReproSil-Pur C18-AQ 3 µm resin (courtesy of Dr. Marisch, Ammerbuch-Entringen, Germany). Peptides were eluted directly into the mass spectrometer with a linear gradient from 5 to 35% solvent B (0.1% formic acid in acetonitrile) for 20 min with a flowrate of 250 nL/min, followed after 10 min with 100% solvent B. Data files were converted to Mascot Generic Format using the Raw Converter (version 1.1.0.18) (http://fields.scripps.edu/rawconv/) or the AB Sciex MS Data Converter beta 1.1 (AB Sciex, Les Ulis, France). The generated peak lists were searched against the Bos taurus proteome (UniProt database, https://www.uniprot.org)) using an in-house Mascot search engine (Matrix Science, London, UK). The searches were made without specifying a protease and with oxidation (Met) and phosphorylation (ST) as variable modifications. Peptide tolerance was set to 10 ppm and MS/MS tolerance was set to 0.2 Da. […]

[1] = tested on: porcine brain endothelial cell (PBEC) monolayers; assay: Apical to basolateral transport of milk peptides across porcine brain endothelial cell (PBEC) monolayers, blood-brain barrier model; format: in vitro ADME; conditions: 2.5 h
Experimental: Capillaries were isolated from the brain cortices of domestic pigs 5–6 months old as previously described. PBECs were cultured by plating the capillaries in T75 flasks coated with collagen IV (500 µg/mL) and fibronectin (100 µg/mL) in DMEM-F12 medium, supplemented with 10% plasma-derived serum (First Link, Wolverhampton, UK), heparin (15 U), 100 units/mL of penicillin and 100 µg/mL of streptomycin (PBEC growth medium), and cultured in an incubator with humidified 5% CO2/95% air at 37 °C. Puromycin (4 µg/mL) was added to the growth medium for the first three days to obtain a pure culture of PBECs.
Astrocyte conditioned medium was collected every third day from primary rat astrocytes, sterile filtered and frozen until use. Isolation of primary rat astrocytes and preparation of astrocyte conditioned media were carried out as described in [20].
PBECs were grown until 70–80% confluency as described above and then passaged onto polyester culture inserts with a pore size of 0.4 μm and a growth area of 1.12 cm^2 (Costar, Corning, NY, USA) at a density of 1.1 × 10^5 cells/cm^2 in the PBEC growth medium. In the basolateral chamber, the medium consisted of 1 mL of PBEC growth medium and 0.5 mL of astrocyte conditioned medium. The medium was supplemented with differentiation factors: 550 nM of hydrocortisone, 250 μM of 8-(4-chlorophenylthio)adenosine-3′,5′-cyclic monophosphate (cAMP) and 17.5 μM of RO-201724 two days after seeding. The next day, the integrity of the PBEC monolayer was confirmed by measuring the TEER. Only PBEC monolayers with TEER values higher than 800 Ω cm^2 were used for the transport analysis.
as §1
LC-MS/MS analysis was performed on a TripleTOF 6600 mass spectrometer equipped with an Exigent nanoLC 415 system (AB Sciex, Les Ulis, France). All samples were micro-purified using 3 M Empore C18 discs packed in pipette tips. The lyophilized samples were dissolved in 0.1% formic acid, injected on a trap column (2 cm × 100 µm inner diameter) and separated on an analytical column packed in-house in a pulled emitter (15 cm × 75 µm inner diameter). All columns were packed with ReproSil-Pur C18-AQ 3 µm resin (courtesy of Dr. Marisch, Ammerbuch-Entringen, Germany). […]

[2] = synthetic peptide 2 µg/mL apical, LC-MS/MS of basal medium

Peptide identified in the basolateral chamber of Caco-2 monolayers (transported) (Caco-2 monolayers; Caco-2, 3 weeks on PET inserts 0.4 μm, TEER above 400 Ω cm^2, A-B, mix of 192 purified milk peptides 0.1 mg/mL apical, HBSS + 10 mM HEPES, LC-MS/MS of basolateral medium, identified in two out of three experiments): identified in the basolateral chamber | Peptide identified in the basal compartment (brain side) of the PBEC BBB model (transported) ([1]; primary PBEC on polyester inserts 0.4 μm, astrocyte conditioned medium, TEER higher than 800 Ω cm^2, A-B, mix of 192 milk peptides 0.1 mg/mL apical, HBSS + 10 mM HEPES, LC-MS/MS, five independent studies, αS1 peptide 'or' its truncated peptides stated collectively): identified in all experiments
Sequence: PIGSENSEKTTMPLW [PIGSENSEKTTMPLW]
Fate of synthetic peptide during transport over Caco-2 monolayers (Caco-2 monolayers; [2]): cleaved by carboxypeptidases during the transport | Fate of synthetic peptide during transport over PBEC monolayers [1, 2]: cleaved by carboxypeptidases during the transport
